Literature values as cited in patent US6511676B1 (priority 1999, dated 2003).

What was measured:
[1] = tested on: testicular cancers; details: in vivo
[2] = tested on: epithelial ovarian carcinoma; details: oral, 61 patients with cis- or carboplatin resistance

Row | SMILES | testicular cancers cured [1] | objective response rate [2]
1 | N.N.[Cl][Pt][Cl] [cisplatin, Cis-diamminedichloroplatinum(II)] | More than 90% | 
2 | CN(C)c1nc(N(C)C)nc(N(C)C)n1 [hexamethylmelamine] |  | 14%
